Experimental data reported in PMC11322497 (Frontiers in Pharmacology, 2024).

What was measured:
[1] = Plasma and liver selvigaltin concentrations after 4 weeks of treatment; assay type: in vivo; conditions: New Zealand White, rabbit, oral, HFD rabbits, 0.3, 1.0, 5.0 mg/kg, read-out: increased levels in liver tissue vs plasma
Procedure: (§1) After 1 week (W) of RD, the animals (n = 44) were randomly assigned to the following groups (Table 1B): • Control rabbits continued to receive a RD for 12 weeks and were treated with vehicle for 5 days a week (days 1–5, p.o.) during the last 4 weeks before culling (RD + 4W Veh group); • Rabbits received a HFD for 8 weeks and were culled (HFD 8W group); • Rabbits received a HFD for 12 weeks and were treated with vehicle for 5 days a week (days 1–5, p.o.) during the last 4 weeks before culling (HFD+4W Veh group); • Rabbits received a HFD for 12 weeks and were treated with GB1211 (0.3 mg/kg) for 5 days a week (days 1–5, p.o.) during the last 4 weeks before culling (HFD + 4W 0.3 mg group); • Rabbits received a HFD for 12 weeks and were treated with GB1211 (1.0 mg/kg) for 5 days a week (days 1–5, p.o.) during the last 4 weeks before culling (HFD + 4W 1.0 mg group); • Rabbits received a HFD for 12 weeks and were treated with GB1211 (5.0 mg/kg) for 5 days a week (days 1–5, p.o.) during the last 4 weeks before culling (HFD + 4W 5.0 mg group).
Liver homogenates were prepared by homogenisation of 200 mg liver tissue/ml water using a Fisherbrand™ Homogenizer 150 (Thermo Fisher Scientific, Waltham, MA). […]

[2] = system: high fat diet (HFD) rabbit model of metabolic-associated steatohepatitis (MASH); assay: HFD rabbit study, prolonged 4-week treatment: fibrosis and inflammation markers mRNA expression; assay type: in vivo, New Zealand White rabbits; conditions: HFD rabbits, weeks 9–12, mean±SD, n=7
Procedure: as §1
TRIzol reagent (Life Technologies, Paisley, United Kingdom) and/or RNeasy Mini Kit (Qiagen, Hilden, Germany) were used to isolate total RNA from rabbit liver specimens. RNA concentration and quality were measured using a Nanodrop ND-1000 (Thermo Fisher Scientific) at 260 nm and 280 nm. The OD 260/280 absorbance ratios were between 2.0 and 2.1 for all samples, to confirm RNA integrity and purification. cDNA synthesis was carried out using the iScript™ cDNA Synthesis Kit (Bio-Rad Laboratories, Hercules, CA), with 100 ng of mRNA in 20 µL reaction volume in accordance with the following protocol: 5 min at 25°C, 20 min at 46°C and 5 min at 85°C, followed by refrigeration at 4°C.
Semi-quantitative real-time RT-PCR (qRT-PCR) amplification and detection was performed with SsoAdvanced™ universal SYBR® Supermix and a CFX96 Two-Color Real-Time PCR Detection System (both Bio-Rad Laboratories) with the following thermal cycler conditions: 40 cycles at 95°C for 15 s and 60°C for 1 min. Specific PCR primers for rabbit target genes were designed on sequences available at the National Center for Biotechnology Information GenBank (http://www.ncbi.nlm.nih.gov) or Ensemble Genome (http://www.ensembl.org).
The 18S ribosomal RNA subunit was quantified with a predeveloped assay (Hs99999901_s1, Life Technologies) and used as the housekeeping gene for the relative quantitation of the target genes based on the comparative threshold cycle (Ct) 2^−ΔΔCt method ([Livak and Schmittgen, 2001]), with some modifications. In detail, we used the vehicle control groups as the calibrator in each analysis, so that the calculations would provide the fold-change of the other groups relative to controls.

[3] = In vitro plasma protein binding in rabbit blood (rapid equilibrium dialysis, LC-MS/MS); assay type: in vitro ADME; conditions: nominal 0.2, 2 and 20 μg/mL, read-out: unbound free fraction
[4] = Ex vivo plasma protein binding, terminal bleed after 5 days of acute dosing; assay type: in vitro ADME; conditions: rabbit, plasma from dosed rabbits (ex vivo), oral, 30 mg/kg, terminal bleed after 5 days 30 mg/kg, week 12
mouse galectin-3 = biological target: mouse galectin-3; design: method as in Zetterberg et al., 2022; conditions: ref Zetterberg et al., 2022; read-out: binding affinity for mouse galectin-3; cited from earlier work

With OC[C@H]1O[C@H](Sc2cncc(Br)c2)[C@H](O)[C@@H](n2cc(-c3cc(F)c(F)c(F)c3)nn2)[C@H]1O [selvigaltin] the Kp at 4 weeks [1] was 50 to 60, the “CD4 liver mRNA expression” value ([2]; 0.3 mg/kg p.o.) was 1.96 ± 0.51 fold-change vs. RD+Veh and the “COL1A1 liver mRNA expression” value ([2]; 0.3 mg/kg p.o.) was 45.14 ± 43.26 fold-change vs. RD+Veh. For the same molecule, the “COL3A1 liver mRNA expression” value ([2]; 0.3 mg/kg p.o.) was 12.38 ± 9.89 fold-change vs. RD+Veh, the “COX-2 liver mRNA expression” value ([2]; 0.3 mg/kg p.o.) was 8.60 ± 4.94 fold-change vs. RD+Veh and the “EDN1 liver mRNA expression” value ([2]; 0.3 mg/kg p.o.) was 1.08 ± 0.33 fold-change vs. RD+Veh. For the same molecule, the “EDNRA liver mRNA expression” value ([2]; 0.3 mg/kg p.o.) was 3.66 ± 2.05 fold-change vs. RD+Veh, the “EDNRB liver mRNA expression” value ([2]; 0.3 mg/kg p.o.) was 1.60 ± 0.42 fold-change vs. RD+Veh and the “FN1 liver mRNA expression” value ([2]; 0.3 mg/kg p.o.) was 1.79 ± 0.76 fold-change vs. RD+Veh. The “FOXP3 liver mRNA expression” value ([2]; 0.3 mg/kg p.o.) was 2.85 ± 1.40 fold-change vs. RD+Veh, the “IL1β liver mRNA expression” value ([2]; 0.3 mg/kg p.o.) was 1.33 ± 0.37 fold-change vs. RD+Veh and the “IL2 liver mRNA expression” value ([2]; 0.3 mg/kg p.o.) was 2.98 ± 1.16 fold-change vs. RD+Veh. The “IL6 liver mRNA expression” value ([2]; 0.3 mg/kg p.o.) was 2.43 ± 1.89 fold-change vs. RD+Veh, the “LGALS3 liver mRNA expression” value ([2]; 0.3 mg/kg p.o.) was 63.90 ± 24.46 fold-change vs. RD+Veh and the “MCP1 liver mRNA expression” value ([2]; 0.3 mg/kg p.o.) was 7.70 ± 6.93 fold-change vs. RD+Veh. For the same molecule, the “PAI-1 liver mRNA expression” value ([2]; 0.3 mg/kg p.o.) was 4.91 ± 1.83 fold-change vs. RD+Veh, the “RAGE liver mRNA expression” value ([2]; 0.3 mg/kg p.o.) was 1.99 ± 1.10 fold-change vs. RD+Veh and the “SNAI1 liver mRNA expression” value ([2]; 0.3 mg/kg p.o.) was 2.05 ± 2.05 fold-change vs. RD+Veh. The “SNAI2 liver mRNA expression” value ([2]; 0.3 mg/kg p.o.) was 2.28 ± 1.03 fold-change vs. RD+Veh, the “TGFβ1 liver mRNA expression” value ([2]; 0.3 mg/kg p.o.) was 4.06 ± 1.62 fold-change vs. RD+Veh and the “TGFβ3 liver mRNA expression” value ([2]; 0.3 mg/kg p.o.) was 1.73 ± 0.80 fold-change vs. RD+Veh. The “TLR4 liver mRNA expression” value ([2]; 0.3 mg/kg p.o.) was 3.89 ± 1.45 fold-change vs. RD+Veh, the “TNFα liver mRNA expression” value ([2]; 0.3 mg/kg p.o.) was 4.39 ± 0.96 fold-change vs. RD+Veh and the “αSMA liver mRNA expression” value ([2]; 0.3 mg/kg p.o.) was 4.64 ± 4.05 fold-change vs. RD+Veh. For the same molecule, the “CD4 liver mRNA expression” value ([2]; 1.0 mg/kg p.o.) was 1.33 ± 0.66 fold-change vs. RD+Veh, the “COL1A1 liver mRNA expression” value ([2]; 1.0 mg/kg p.o.) was 9.00 ± 6.03 fold-change vs. RD+Veh and the “COL3A1 liver mRNA expression” value ([2]; 1.0 mg/kg p.o.) was 3.49 ± 2.11 fold-change vs. RD+Veh. For the same molecule, the “COX-2 liver mRNA expression” value ([2]; 1.0 mg/kg p.o.) was 6.14 ± 3.84 fold-change vs. RD+Veh, the “EDN1 liver mRNA expression” value ([2]; 1.0 mg/kg p.o.) was 0.99 ± 0.28 fold-change vs. RD+Veh and the “EDNRA liver mRNA expression” value ([2]; 1.0 mg/kg p.o.) was 2.13 ± 1.20 fold-change vs. RD+Veh. For the same molecule, the “EDNRB liver mRNA expression” value ([2]; 1.0 mg/kg p.o.) was 1.58 ± 0.31 fold-change vs. RD+Veh, the “FN1 liver mRNA expression” value ([2]; 1.0 mg/kg p.o.) was 1.06 ± 0.22 fold-change vs. RD+Veh and the “FOXP3 liver mRNA expression” value ([2]; 1.0 mg/kg p.o.) was 1.39 ± 0.43 fold-change vs. RD+Veh. For the same molecule, the “IL1β liver mRNA expression” value ([2]; 1.0 mg/kg p.o.) was 1.18 ± 0.45 fold-change vs. RD+Veh, the “IL2 liver mRNA expression” value ([2]; 1.0 mg/kg p.o.) was 1.85 ± 1.16 fold-change vs. RD+Veh and the “IL6 liver mRNA expression” value ([2]; 1.0 mg/kg p.o.) was 0.58 ± 0.22 fold-change vs. RD+Veh. The “LGALS3 liver mRNA expression” value ([2]; 1.0 mg/kg p.o.) was 50.04 ± 15.84 fold-change vs. RD+Veh, the “MCP1 liver mRNA expression” value ([2]; 1.0 mg/kg p.o.) was 4.23 ± 1.50 fold-change vs. RD+Veh and the “PAI-1 liver mRNA expression” value ([2]; 1.0 mg/kg p.o.) was 4.93 ± 2.25 fold-change vs. RD+Veh. The “RAGE liver mRNA expression” value ([2]; 1.0 mg/kg p.o.) was 1.14 ± 0.36 fold-change vs. RD+Veh, the “SNAI1 liver mRNA expression” value ([2]; 1.0 mg/kg p.o.) was 1.30 ± 1.21 fold-change vs. RD+Veh and the “SNAI2 liver mRNA expression” value ([2]; 1.0 mg/kg p.o.) was 1.15 ± 0.42 fold-change vs. RD+Veh. For the same molecule, the “TGFβ1 liver mRNA expression” value ([2]; 1.0 mg/kg p.o.) was 2.87 ± 1.14 fold-change vs. RD+Veh, the “TGFβ3 liver mRNA expression” value ([2]; 1.0 mg/kg p.o.) was 1.20 ± 0.54 fold-change vs. RD+Veh and the “TLR4 liver mRNA expression” value ([2]; 1.0 mg/kg p.o.) was 3.63 ± 0.90 fold-change vs. RD+Veh. The “TNFα liver mRNA expression” value ([2]; 1.0 mg/kg p.o.) was 3.67 ± 2.21 fold-change vs. RD+Veh, the “αSMA liver mRNA expression” value ([2]; 1.0 mg/kg p.o.) was 1.75 ± 1.34 fold-change vs. RD+Veh and the “CD4 liver mRNA expression” value ([2]; 5.0 mg/kg p.o.) was 2.60 ± 1.97 fold-change vs. RD+Veh. For the same molecule, the “COL1A1 liver mRNA expression” value ([2]; 5.0 mg/kg p.o.) was 25.20 ± 23.86 fold-change vs. RD+Veh, the “COL3A1 liver mRNA expression” value ([2]; 5.0 mg/kg p.o.) was 7.26 ± 6.59 fold-change vs. RD+Veh and the “COX-2 liver mRNA expression” value ([2]; 5.0 mg/kg p.o.) was 13.87 ± 22.12 fold-change vs. RD+Veh. For the same molecule, the “EDN1 liver mRNA expression” value ([2]; 5.0 mg/kg p.o.) was 1.09 ± 0.51 fold-change vs. RD+Veh, the “EDNRA liver mRNA expression” value ([2]; 5.0 mg/kg p.o.) was 3.04 ± 2.38 fold-change vs. RD+Veh and the “EDNRB liver mRNA expression” value ([2]; 5.0 mg/kg p.o.) was 2.49 ± 2.19 fold-change vs. RD+Veh. For the same molecule, the “FN1 liver mRNA expression” value ([2]; 5.0 mg/kg p.o.) was 1.51 ± 0.74 fold-change vs. RD+Veh, the “FOXP3 liver mRNA expression” value ([2]; 5.0 mg/kg p.o.) was 3.57 ± 1.87 fold-change vs. RD+Veh and the “IL1β liver mRNA expression” value ([2]; 5.0 mg/kg p.o.) was 1.32 ± 0.62 fold-change vs. RD+Veh. The “IL2 liver mRNA expression” value ([2]; 5.0 mg/kg p.o.) was 3.33 ± 2.66 fold-change vs. RD+Veh, the “IL6 liver mRNA expression” value ([2]; 5.0 mg/kg p.o.) was 1.59 ± 1.33 fold-change vs. RD+Veh and the “LGALS3 liver mRNA expression” value ([2]; 5.0 mg/kg p.o.) was 67.63 ± 53.87 fold-change vs. RD+Veh. For the same molecule, the “MCP1 liver mRNA expression” value ([2]; 5.0 mg/kg p.o.) was 5.47 ± 2.52 fold-change vs. RD+Veh, the “PAI-1 liver mRNA expression” value ([2]; 5.0 mg/kg p.o.) was 5.06 ± 3.07 fold-change vs. RD+Veh and the “RAGE liver mRNA expression” value ([2]; 5.0 mg/kg p.o.) was 1.73 ± 0.67 fold-change vs. RD+Veh. The “SNAI1 liver mRNA expression” value ([2]; 5.0 mg/kg p.o.) was 2.32 ± 1.38 fold-change vs. RD+Veh, the “SNAI2 liver mRNA expression” value ([2]; 5.0 mg/kg p.o.) was 1.68 ± 0.79 fold-change vs. RD+Veh and the “TGFβ1 liver mRNA expression” value ([2]; 5.0 mg/kg p.o.) was 3.96 ± 2.80 fold-change vs. RD+Veh. For the same molecule, the “TGFβ3 liver mRNA expression” value ([2]; 5.0 mg/kg p.o.) was 1.87 ± 0.71 fold-change vs. RD+Veh, the “TLR4 liver mRNA expression” value ([2]; 5.0 mg/kg p.o.) was 3.90 ± 1.30 fold-change vs. RD+Veh and the “TNFα liver mRNA expression” value ([2]; 5.0 mg/kg p.o.) was 3.80 ± 1.84 fold-change vs. RD+Veh. For the same molecule, the “αSMA liver mRNA expression” value ([2]; 5.0 mg/kg p.o.) was 3.17 ± 2.57 fold-change vs. RD+Veh, the fraction unbound [3] was 0.141 and the fraction unbound at 5 days ([4]; HFD rabbits) was 0.929. For the same molecule, the fraction unbound at 5 days ([4]; RD rabbits) was 0.946 and the Kd (mouse galectin-3) was 770 nM.
